Counter-ions that a name gives are not always drawn.
Columns and labels:
[1] = oral dosage form; cited from earlier work
[2] = 10 mg/day (5 mg twice daily); randomised, double-blind, placebo-controlled trials; cited from earlier work
Solubility in water = type: physicochemical; details: pH of about 4.0 to about 5.0

## CN1C[C@@H]2c3ccccc3Oc3ccc(Cl)cc3[C@H]2C1 (relative stereo) [Asenapine, trans-5-chloro-2-methyl-2,3,3a,12b-tetrahydro-1H-dibenz[2,3:6,7]oxepino[4,5-c]pyrrole]
[1]
  bioavailability: < 1%
[2]
  efficacy in the treatment of schizophrenia as assessed by the Positive and Negative Symptoms Scale (PANSS): effective

## CN1CC2c3ccccc3Oc3ccc(Cl)cc3C2C1 (stereo not drawn) [Asenapine maleate]
Solubility in water
  solubility: ~10000 µg/mL
